Data taken from patent EP0552657A1, “Use of pure Boswellic acid” (AMMON, Hermann P.T., priority 1992, dated 1993).

Molecular target: T1, 5-Lipoxygenase (Rattus norvegicus, UniProt P12527)
T1 sequence (P12527 1-673): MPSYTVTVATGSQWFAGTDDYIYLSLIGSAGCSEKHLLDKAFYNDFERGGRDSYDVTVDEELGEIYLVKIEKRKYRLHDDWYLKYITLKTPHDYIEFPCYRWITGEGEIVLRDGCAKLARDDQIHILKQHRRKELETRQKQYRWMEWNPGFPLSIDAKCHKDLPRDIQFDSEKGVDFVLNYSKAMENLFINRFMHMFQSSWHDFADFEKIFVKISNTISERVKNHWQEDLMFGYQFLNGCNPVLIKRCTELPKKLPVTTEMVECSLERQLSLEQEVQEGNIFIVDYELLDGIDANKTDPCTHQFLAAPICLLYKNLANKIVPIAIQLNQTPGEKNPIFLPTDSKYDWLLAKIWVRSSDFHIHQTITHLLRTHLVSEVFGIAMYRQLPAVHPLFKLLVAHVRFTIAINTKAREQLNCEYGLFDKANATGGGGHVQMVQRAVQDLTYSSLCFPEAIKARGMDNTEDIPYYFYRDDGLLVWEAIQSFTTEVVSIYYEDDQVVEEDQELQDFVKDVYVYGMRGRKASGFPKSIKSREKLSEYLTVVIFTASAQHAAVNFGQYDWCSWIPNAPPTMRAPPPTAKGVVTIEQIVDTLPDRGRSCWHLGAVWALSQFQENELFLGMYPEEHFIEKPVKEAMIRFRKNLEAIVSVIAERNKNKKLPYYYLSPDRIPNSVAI
Assay: 5-lipoxygenase inhibition by boswellic acids (stimulated neutrophil granulocytes from rat peritoneum)
Assay type: cell-based, Ratte
Conditions: read-out: IC50-Werte für die 5-LO-Hemmung
Excerpt: Mit Hilfe des Testes mit Calcium- und Ionophor-stimulierten neutrophilen Leukozyten der Ratte konnte nachgewiesen werden, daß Extrakte aus Boswellia serrata vorwiegend die Bildung von Leukotrienen blockieren, dagegen die Prostaglandinsynthese erst in wesentlich höheren Konzentrationen beeinflussen (vgl. zur Methodik: a) Messung der Leukotriene: Safayhi et al., Biochem. Pharmacology, 34:2691-2694, 1985; b) Messung der Prostaglandine: Kommerzielle Radio-Immunoassay-Kits der Firma Amersham für 6-Keto-PGF1α).
Anhand der beigefügten Zeichnungen wird die Erfindung näher erläutert. […] Methode: Safayhi et al., JPET accepted. • Fig. 4 die Elutionsprofile der durch Eisen/Ascorbat-Stimulation aus exogener Arachidonsäure im zellfreien System entstehenden oxidierten und hydroxylierten Produkte in Gegenwart steigender Konzentrationen von Acetyl-boswelliasäure (A) und Nordihydroguaiaretsäure (B). Methode: Safayhi et al., JPET accepted.

| SMILES | IC50 |
| --- | --- |
| CC(=O)O[C@@H]1CC[C@@]2(C)[C@@H](CC[C@]3(C)[C@@H]2CC=C2[C@@H]4CC(C)(C)CC[C@]4(C)CC[C@]23C)[C@@]1(C)C(=O)O [Acetyl-α-boswelliasäure] | 7 µM |
| C[C@H]1[C@H](C)CC[C@]2(C)CC[C@]3(C)C(=CC[C@@H]4[C@@]5(C)CC[C@@H](O)[C@](C)(C(=O)O)[C@@H]5CC[C@]43C)[C@H]12 [ß-Boswelliasäure] | 5 µM |
| CC(=O)O[C@@H]1CC[C@@]2(C)[C@@H](CC[C@]3(C)[C@@H]2C(=O)C=C2[C@@H]4[C@@H](C)[C@H](C)CC[C@]4(C)CC[C@]23C)[C@@]1(C)C(=O)O [Acetyl-11-keto-ß-boswelliasäure] | 2 µM |
| C[C@H]1[C@H](C)CC[C@]2(C)CC[C@]3(C)C(=CC(=O)[C@@H]4[C@@]5(C)CC[C@@H](O)[C@](C)(C(=O)O)[C@@H]5CC[C@]43C)[C@H]12 [11-Keto-ß-boswelliasäure] | 5 µM |
| CC(=O)O[C@@H]1CC[C@@]2(C)[C@@H](CC[C@]3(C)[C@@H]2CC=C2[C@@H]4[C@@H](C)[C@H](C)CC[C@]4(C)CC[C@]23C)[C@@]1(C)C(=O)O [Acetyl-boswelliasäure] | 7 µM |
| CC1(C)CC[C@]2(C)CC[C@]3(C)C(=CC[C@@H]4[C@@]5(C)CC[C@@H](O)[C@](C)(C(=O)O)[C@@H]5CC[C@]43C)[C@@H]2C1 [α-Boswelliasäure] | 5 µM |
